From patent US7405211B2, “Therapeutic morpholino-substituted compounds” (AstraZeneca AB, priority 2000, dated 2008) come the findings set out here.

The term IC50 denotes the concentration needed to halve the response being measured.

In test [1] the test system is PI 3-kinase immunoprecipitated from human platelets. The test is described as follows: In vitro PI 3-kinase assay (32P incorporation into PI). In kind it is biochemical. The following applies: PI 3-kinase from human platelets, PI substrate. The method, then:
The effect of TGX-25, TGX-33, TGX-37, TGX-40, TGX-41, TGX-57, TGX-84, TGX-90, TGX-93, TGX-98, TGX-99, TGX-101, TGX-106, TGX-107, TGX-108, TGX-109, TGX-111, TGX-112, TGX-113, TGX-115, TGX-120, TGX-121, TGX-123, TGX-124, TGX-126, TGX-127, TGX-130 or TGX-131on PI 3-kinase activity was determined using an in vitro PI 3-kinase assay. This assay was performed using PI 3-kinase immunoprecipitated from human platelets as the enzyme and PI as the substrate. The PI 3-kinase activity was quantitated by measuring the enzymatic incorporation of [^32P] into PI, forming PI([^32P]-3)P, as previously described (Susa et al., 1992, The Journal of Biological Chemistry 267(32):22951-22956.
Washed human platelets were lysed in Triton X-100 lysis buffer (10 mM Tris, pH 7.4, 1% Triton X-100, 2 mM EDTA, 1 mM PMSF) for 30 minutes. The Triton X-100 insoluble fraction was removed by centrifugation of the cell lysates at 15,000 g for 10 minutes. PI 3-kinase was immunoprecipitated by mixing 500 μg of the cell lysate with 1 μg of a rabbit anti-rat antibody against the p85/110 form of PI 3-kinase and 30 μl of 50% Protein A-sepharose beads for 2 hours at 4° C. The Protein A-sepharose-bound PI 3-kinase was isolated by pelleting the beads at 15,000 g for 5 seconds, and washing three times with ice-old Triton X-100 lysis buffer followed by four washes with PI 3-kinase assay buffer (20 mM HEPES, pH 7.4, 1 mM EGTA, 5 mM MgCl2).
PI stored in CHCl3 was dried under N2, resuspended in the lipid buffer (50 mM HEPES, pH 7.2, 1 mM EDTA) at a final concentration of 330 μg/ml, and sonicated for 6 minutes on ice. PI([^32P]-3)P was generated by mixing the immunoprecipitated PI 3-kinase for 20 minutes with 40 μl of the PI, 10 μl of ATP (1 mM) and ^32P-r-ATP (0.5 μCi, 1 μCi/nmol), 10 μl of 10× kinase buffer, in a final assay volume of 100 μl adjusted with H2O. TGX-25, TGX-33, TGX-37, TGX-40, TGX-41, TGX-57, TGX-84, TGX-90, TGX-93, TGX-98, TGX-99, TGX-101, TGX-106, TGX-107, TGX-108, TGX-109, TGX-111, TGX-112, TGX-113, TGX-115, TGX-120, TGX-121, TGX-123, TGX-124, TGX-126, TGX-127, TGX-130 or TGX-131 was preincubated with the PI 3-kinase for 5 minutes prior to the addition of ATP. The assay was terminated with 100 μl of 1 N HCl, and the PI([^32P]-3)P product extracted with 200 μl chloroform:methanol (1:1) and 500 μl 2 M KCl. The PI([^32P]-3)P in the chloroform phase was resolved by thin layer chromatography using a solvent system containing CHCl3:MeOH:HAC:H2O (43:38:5:7) (v:v:v:v), and visualized by autoradiography. The PI([^32P]-3)P spots were then scraped off from the TLC plates, deacylated with 1 ml methylamine:butanol:methanol (42:9:47) (v:v:v) for 4 hours at 53° C., and quantitated using a liquid scintillation counter (LKB 1209 RackBETA).

In test [2] the test system is K562 (leukaemia derived) and U937 (moncytic) cell lines. The test is described as follows: Cell proliferation assay. The following applies: 20 μM, 4 day incubation. In kind it is cell-based. How it is done: The anti-proliferative activity of the compounds of this invention from all three chemical classes was determined using K562 (leukaemia derived) and U937 (moncytic) cell lines. The cytotoxic activity of the compounds was monitored over four days by counting cell number and determining cell viability using a colourimetric assay metabolic activity.

A further test concerns the target T1, PI3K γ (Homo sapiens, UniProt P48736).
T1 construct: made in house
The test is described as follows: In vitro enzyme assay PI3K γ (recombinant). The following applies: recombinant γ isoform. In kind it is biochemical. How it is done: (§1) In vitro enzyme assays were conducted as a primary screen to determine drug candidate isoform affinity and specificity.
(§2) The α and β isoforms of the PI3K were immunoprecipitated from a platelet lysate using an antibody that recognised the p85 regulatory subunit common to both forms of the enzyme. The γ isoform was produced as a recombinant protein in the Thrombogenix laboratories. […] Standard phosphorylation assays using phosphatidylinositol and ^32P were used to measure the enzyme activity in the immunoprecipates in the presence or absence of an inhibitor. Enzyme activity was determined over a range of inhibitor concentrations to establish an IC50 value.

A further test deals with PI3K α/β isoforms. Briefly: In vitro enzyme assay PI3K α/β. In kind it is biochemical. To be noted: immunoprecipitated from platelet lysate. How it is done:
as §1, §2

Test [3] has as its system rats producing regular cyclic flow reductions (CFRs). Briefly: Animal model of internal carotid artery occlusion (Folts model, cyclic flow reductions). In kind it is in vivo. To be noted: rat. An excerpt:
The inhibitory effect of TGX-40 was examined in the well established animal model of arterial thrombosis of Folts et al., 1982, Circulation 65:248-255. This model is used to investigate the effects of antithrombotic drugs on clotting time in vivo in response to a crush injury followed by arterial stenosis.
The carotid artery of an anesthetized rat is dissected out, and an electromagnetic flow probe is placed around the artery to measure blood flow. Proximal to the flow probe, the artery is clamped with surgical forceps covered with silicone tubing to cause intimal and medial damage to the vessel wall. A ligature, or plastic cylinder of appropriate inside diameter is laced around the artery to produce a 70% reduction in arterial diameter.
Platelets aggregate in the area of the stenosed and damaged arterial vessel, gradually forming an occlusive platelet thrombus, seen as a decrease in blood flow. As the thrombus forms, blood pressure increases, causing the thrombus to fragment and embolize distal to the stenosed site. […] This causes a sudden restoration of blood flow. Platelets again aggregate in the area of the stenosed and damaged arterial vessel, repeating the thrombus-embolization pattern. […]
TGX-40 was administered at doses of 1.6 mg/kg and 3.2 mg/kg via the jugular vein and the stabilization of blood flow was recorded.

The subject of test [4] is platelet thrombus formation. Briefly: Whole-blood flow assay: platelet thrombus formation on vWf matrix (platelet LDH). To be noted: shear rate 1800 s^−1. In kind it is cell-based. How it is done:
The inhibitory effect of TGX-40 on platelet thrombus formation was examined using a whole-blood flow assay, since thrombi formed by washed platelets are small and poorly reproducible. Anticoagulated whole blood was incubated with 50, 100, or 200 μM TGX-40, or control buffer (0.1% DMSO) for 30 minutes with gentle rocking prior to perfusion through vWf-coated glass microslides for 2 minutes at a shear rate of 1800 s^−1. Non-adherent platelets were removed by washing for 10 minutes at 1800 s^−1, and adherent erythrocytes were lysed with 1% ammonium oxalate. The level of thrombus formation was quantitated indirectly by measuring platelet LDH (U/L) levels in the whole cell lysates by spectrophotometry. Following a 2-minute perfusion of whole blood, platelet-rich thrombi were observed over the surface of the microslide. […] As illustrated graphically in FIG. 2, pretreatment of whole blood with 50, 100, and 200 μM TGX-40 led to a decrease of 25, 53, and 80% in thrombus formation relative to control.

The test system of a further test is platelets. Briefly: Flow-based reconstitution assay: platelet adhesion to vWf-coated glass microslides. Format: cell-based. To be noted: 30 min pretreatment, shear rate 1800 s^−1. How it is done: The effect of TGX-40 on platelet adhesion was examined using a flow-based adhesion assay. Washed platelets were pretreated with 10, 25, or 50 μM TGX-40, or control buffer (0.1% DMSO) for 30 minutes at 37° C. prior to reconstitution with red blood cells to a hematocrit of 50%. The platelets and reconstituted red blood cells were perfused through vWf-coated glass microslides for 1 minute at a shear rate of 1800 s^−1. Non-adherent cells were removed by washing for 10 minutes at 1800 s^−1 and the number of adherent platelet were quantitated and expressed as the mean±SEM. As illustrated graphically in FIG. 1, TGX40 inhibited the ability of platelets to adhere in a dose-dependent manner, showing a decrease of 51, 67 and 86% in platelet adhesion when platelets were pretreated with 10, 25, and 50 μM TGX-40.

The target in the next test is tyrosine kinase fyn (Homo sapiens, UniProt P06241). Briefly: Enzyme screening assay: tyrosine kinase fyn. In kind it is biochemical. An excerpt:
(§3) The two leading compounds of the quinolone series, TGX155 and TGX84 were screened for activity against seven enzymes related to PI3K in function or substrate specificity, viz: ATPase, PDE4, tyrosine kinases EGF and fyn, protein kinases A and C, and tyrosine phosphatase.

In another test the target is T2, PI4K.
T2 construct: PI4K was isolated from platelets in a similar manner using a PI4K specific antibody
Briefly: In vitro enzyme assay PI4K. Format: biochemical. To be noted: PI4K isolated from platelets; read-out: IC50 against PI4K. The method, then: In vitro enzyme assays were conducted as a primary screen to determine drug candidate isoform affinity and specificity. The affinity of two leading compounds of the quinolone series (TGX84 and TGX155) for a closely related enzyme family, PI4K, was also determined to maximise compound specificity and therefore minimise potential adverse biochemical events.
The α and β isoforms of the PI3K were immunoprecipitated from a platelet lysate using an antibody that recognised the p85 regulatory subunit common to both forms of the enzyme. The γ isoform was produced as a recombinant protein in the Thrombogenix laboratories. PI4K was isolated from platelets in a similar manner using a PI4K specific antibody. Standard phosphorylation assays using phosphatidylinositol and ^32P were used to measure the enzyme activity in the immunoprecipates in the presence or absence of an inhibitor. Enzyme activity was determined over a range of inhibitor concentrations to establish an IC50 value.

The target of a further test is tyrosine kinase EGF (Homo sapiens, UniProt P00533). The test is described as follows: Enzyme screening assay: tyrosine kinase EGF. In kind it is biochemical.
tyrosine kinase EGF, sequence (P00533 25-1210): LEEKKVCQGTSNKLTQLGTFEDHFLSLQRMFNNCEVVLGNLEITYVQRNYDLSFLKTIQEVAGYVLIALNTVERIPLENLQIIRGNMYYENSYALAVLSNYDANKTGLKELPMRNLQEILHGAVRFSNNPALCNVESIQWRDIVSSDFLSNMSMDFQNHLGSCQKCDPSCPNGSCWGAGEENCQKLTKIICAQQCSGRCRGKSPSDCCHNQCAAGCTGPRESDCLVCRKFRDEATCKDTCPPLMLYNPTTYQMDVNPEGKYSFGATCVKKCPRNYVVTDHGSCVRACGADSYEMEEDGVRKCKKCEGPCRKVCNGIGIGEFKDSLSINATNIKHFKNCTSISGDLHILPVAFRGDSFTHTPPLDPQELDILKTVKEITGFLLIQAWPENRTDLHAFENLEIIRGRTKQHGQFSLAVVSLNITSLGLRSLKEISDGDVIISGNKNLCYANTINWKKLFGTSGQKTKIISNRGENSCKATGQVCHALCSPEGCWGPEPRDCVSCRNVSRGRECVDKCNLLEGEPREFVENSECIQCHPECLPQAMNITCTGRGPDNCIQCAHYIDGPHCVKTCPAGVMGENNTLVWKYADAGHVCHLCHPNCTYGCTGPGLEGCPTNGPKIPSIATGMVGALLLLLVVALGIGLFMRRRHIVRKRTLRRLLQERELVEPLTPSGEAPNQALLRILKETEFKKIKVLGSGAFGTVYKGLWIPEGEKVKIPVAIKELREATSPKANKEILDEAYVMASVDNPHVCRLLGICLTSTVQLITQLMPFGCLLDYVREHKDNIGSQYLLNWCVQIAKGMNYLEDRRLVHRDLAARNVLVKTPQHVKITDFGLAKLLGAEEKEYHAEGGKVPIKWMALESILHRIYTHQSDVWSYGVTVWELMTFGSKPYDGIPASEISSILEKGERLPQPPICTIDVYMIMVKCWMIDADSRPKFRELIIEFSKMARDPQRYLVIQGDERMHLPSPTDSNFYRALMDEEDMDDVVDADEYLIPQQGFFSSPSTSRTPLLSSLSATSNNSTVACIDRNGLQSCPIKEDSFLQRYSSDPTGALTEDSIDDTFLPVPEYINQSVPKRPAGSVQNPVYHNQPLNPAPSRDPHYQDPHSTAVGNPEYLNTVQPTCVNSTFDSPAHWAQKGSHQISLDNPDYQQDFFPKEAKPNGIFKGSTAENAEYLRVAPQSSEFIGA
Text: as §3

A value given as a limit tells only on which side of the number the result lay.

T1 sequence (P48736 whole entry, species assumed): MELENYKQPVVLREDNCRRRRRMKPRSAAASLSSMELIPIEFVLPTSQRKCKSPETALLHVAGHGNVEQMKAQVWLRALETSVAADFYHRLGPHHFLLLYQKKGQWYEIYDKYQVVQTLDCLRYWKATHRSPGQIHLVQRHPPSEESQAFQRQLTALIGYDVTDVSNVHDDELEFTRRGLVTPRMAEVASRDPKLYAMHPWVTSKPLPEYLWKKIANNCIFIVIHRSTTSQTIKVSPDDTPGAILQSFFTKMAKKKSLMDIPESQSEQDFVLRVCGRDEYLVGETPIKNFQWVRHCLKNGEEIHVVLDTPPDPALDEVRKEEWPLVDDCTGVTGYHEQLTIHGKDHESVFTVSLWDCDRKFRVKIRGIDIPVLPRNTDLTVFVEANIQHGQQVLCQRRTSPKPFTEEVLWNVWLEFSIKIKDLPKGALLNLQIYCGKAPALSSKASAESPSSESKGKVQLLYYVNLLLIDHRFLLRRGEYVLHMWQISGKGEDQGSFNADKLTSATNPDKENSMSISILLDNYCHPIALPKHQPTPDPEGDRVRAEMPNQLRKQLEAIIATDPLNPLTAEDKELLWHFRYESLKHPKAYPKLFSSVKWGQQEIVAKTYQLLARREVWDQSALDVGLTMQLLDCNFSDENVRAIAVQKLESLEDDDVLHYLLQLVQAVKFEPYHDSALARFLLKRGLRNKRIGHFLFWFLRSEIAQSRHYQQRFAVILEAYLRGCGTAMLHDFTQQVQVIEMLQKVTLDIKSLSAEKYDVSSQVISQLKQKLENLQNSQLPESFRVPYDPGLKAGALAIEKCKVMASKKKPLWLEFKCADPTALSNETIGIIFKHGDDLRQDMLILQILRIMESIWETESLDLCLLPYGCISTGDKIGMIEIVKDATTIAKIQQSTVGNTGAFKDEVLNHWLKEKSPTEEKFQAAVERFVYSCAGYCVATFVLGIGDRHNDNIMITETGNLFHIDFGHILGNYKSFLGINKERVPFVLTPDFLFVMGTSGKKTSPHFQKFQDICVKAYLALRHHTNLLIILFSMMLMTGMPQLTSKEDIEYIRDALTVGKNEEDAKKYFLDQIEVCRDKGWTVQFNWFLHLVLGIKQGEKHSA
tyrosine kinase fyn, sequence (P06241 whole entry): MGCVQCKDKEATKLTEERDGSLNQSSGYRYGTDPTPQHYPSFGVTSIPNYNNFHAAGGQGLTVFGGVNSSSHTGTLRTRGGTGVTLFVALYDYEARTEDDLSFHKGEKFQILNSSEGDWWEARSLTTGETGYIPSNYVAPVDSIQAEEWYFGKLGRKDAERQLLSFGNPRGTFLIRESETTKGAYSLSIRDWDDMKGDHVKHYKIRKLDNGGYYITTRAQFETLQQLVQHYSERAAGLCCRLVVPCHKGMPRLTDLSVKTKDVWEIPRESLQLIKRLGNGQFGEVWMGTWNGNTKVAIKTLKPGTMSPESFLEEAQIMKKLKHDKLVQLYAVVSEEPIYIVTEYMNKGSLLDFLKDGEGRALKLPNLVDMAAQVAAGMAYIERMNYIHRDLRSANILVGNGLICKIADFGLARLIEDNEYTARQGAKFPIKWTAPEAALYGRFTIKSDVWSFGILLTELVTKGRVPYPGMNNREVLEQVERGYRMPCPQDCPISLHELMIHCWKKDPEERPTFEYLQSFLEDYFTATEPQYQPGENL

`Cc1cc(N[C@H](C)c2ccccc2)c2nc(N3CCOCC3)cc(=O)n2c1` [TGX-123] displayed an IC50 in test [1] of 200 nM. The “% Cells remaining” value in test [2] was 10%.
For `O=c1cc(N2CCOCC2)[nH]c2c(Sc3ccccc3)cccc12` [TGX-111], the IC50 was above 10000 nM at PI3K γ, 50 nM in test [1] and 50 nM against PI3K α/β isoforms.
In the case of `Cc1cc(CNc2ccc(F)cc2C)c2nc(N3CCOCC3)cc(=O)n2c1` [TGX-186], the “% Cells remaining” value in [2] came to 1.5%.
On to `Cc1cc(NCc2ccccc2Cl)c2nc(N3CCOCC3)cc(=O)n2c1` [TGX-167], for which the values for the half-maximal inhibitory concentration (IC50) (at PI3K γ; in test [1]; against PI3K α/β isoforms) were 5000 to 10000 nM, 50 nM and 50 nM, respectively. Further, the “% Cells remaining” value in test [2] is 1.5%.
For `COc1ccccc1CNc1cc(C)cn2c(=O)cc(N3CCOCC3)nc12` [TGX-137], the half-inhibitory concentration (IC50) at PI3K γ stood at 5000 nM; in test [1], 50 nM; against PI3K α/β isoforms, 50 nM.
As to `O=c1cc(N2CCOCC2)nc2c(Cc3ccccc3)cccn12` [TGX-40], the “treated animals returned to baseline within 10 minutes” value in test [3] (1.6 mg/kg via the jugular vein) and in test [3] (3.2 mg/kg via the jugular vein) was 90% in each case. Further, the “decrease in thrombus formation relative to control” value amounted to 25% in test [4] (50 μM), 53% in test [4] (100 μM) and 80% in test [4] (200 μM). The IC50 in test [1] was around 1500 nM. Moreover, the “decrease in platelet adhesion” value amounted to 51% with platelets (10 μM), 67% with platelets (25 μM) and 86% with platelets (50 μM). Moreover, the “% Cells remaining” value in [2] was 75%.
Consider `Cc1cc(F)ccc1Oc1cccc2c(=O)cc(N3CCOCC3)[nH]c12` [TGX-155, 8-(4′-Fluoro-2′-methylphenoxy)-2-morpholino-4-quinolone], for which the half-maximal inhibitory concentration (IC50) at PI3K γ was 5000 nM; in test [1] it was 20 nM; against PI3K α/β isoforms, 20 nM; against tyrosine kinase fyn, above 100000 nM; at PI4K, 100000 nM; on tyrosine kinase EGF, above 100000 nM.
Turning to `Cc1cccc(Oc2cccc3c(=O)cc(N4CCOCC4)[nH]c23)c1` [TGX-127], the IC50 at PI3K γ was 5000 to 10000 nM; in test [1], 50 nM; against PI3K α/β isoforms, 50 nM.
On to `O=c1cc(N2CCOCC2)[nH]c2c(Oc3ccccc3F)cccc12` [TGX-143], for which the 50% inhibitory concentration (IC50) was determined as 2000 nM at PI3K γ, 150 nM in test [1] and 150 nM on PI3K α/β isoforms.
Take `Cc1cc(Nc2ccc(O)cc2C)c2nc(N3CCOCC3)cc(=O)n2c1` [TGX-174]: the IC50 on PI3K γ was 5000 nM; in [1] it was 100 nM; against PI3K α/β isoforms, 100 nM.
For the molecule `O=c1cc(N2CCOCC2)[nH]c2c(Oc3ccc(F)cc3)cccc12` [TGX-121], the values for the concentration for half-maximal inhibition (IC50) (on PI3K γ; in [1]; against PI3K α/β isoforms) were 5000 nM, 50 nM and 50 nM, respectively.
